Values quoted from earlier work, collected in US20200308123A1, “Novel formulation of metaxalone” (ICEUTICA PTY LTD., priority 2009, published 2020).
Like-named read-outs stand apart in the source and are kept apart here.

Experiments:
[1] = test system: major CYP enzymes such as CYP1A2, CYP2B6, and CYP3A4; settings: in vitro
[2] = test system: major CYP enzymes such as CYP1A2, CYP2A6, CYP2B6, CYP2C8, CYP2C9, CYP2C19, CYP2D6, CYP2E1, and CYP3A4
[3] = test system: Hepatic Cytochrome P450 enzymes

For `Cc1cc(C)cc(OCC2CNC(=O)O2)c1` (stereo not drawn) [Metaxalone], the “induction of major CYP enzymes” value [1] is listed as “does not significantly induce”, the “inhibition of major CYP enzymes” value [2] is listed as “does not significantly inhibit” and the “CYP enzymes that appear to metabolize metaxalone” value [3] is listed as “CYP1A2, CYP2D6, CYP2E1, and CYP3A4 and, to a lesser extent, CYP2C8, CYP2C9, and CYP2FC19”. For the same molecule, the “lipophilicity (log P)” value was 2.42, the solubility (in 96% ethanol) was “soluble” and the solubility (in chloroform) was “freely soluble”. The solubility (in ether) was “practically insoluble”, the solubility (in methanol) was “soluble” and the solubility (in water) was “practically insoluble”.
